Data taken from patent publication US12479821B2 (MBD CO., LTD., priority 2019, dated 2025).

Target: T1, CYP4A (Homo sapiens, UniProt Q02928)
T1 construct: host or cells: bactosome, i.e. bacterial membrane preparation (own knowledge of the term)
T1 sequence (Q02928 5-519): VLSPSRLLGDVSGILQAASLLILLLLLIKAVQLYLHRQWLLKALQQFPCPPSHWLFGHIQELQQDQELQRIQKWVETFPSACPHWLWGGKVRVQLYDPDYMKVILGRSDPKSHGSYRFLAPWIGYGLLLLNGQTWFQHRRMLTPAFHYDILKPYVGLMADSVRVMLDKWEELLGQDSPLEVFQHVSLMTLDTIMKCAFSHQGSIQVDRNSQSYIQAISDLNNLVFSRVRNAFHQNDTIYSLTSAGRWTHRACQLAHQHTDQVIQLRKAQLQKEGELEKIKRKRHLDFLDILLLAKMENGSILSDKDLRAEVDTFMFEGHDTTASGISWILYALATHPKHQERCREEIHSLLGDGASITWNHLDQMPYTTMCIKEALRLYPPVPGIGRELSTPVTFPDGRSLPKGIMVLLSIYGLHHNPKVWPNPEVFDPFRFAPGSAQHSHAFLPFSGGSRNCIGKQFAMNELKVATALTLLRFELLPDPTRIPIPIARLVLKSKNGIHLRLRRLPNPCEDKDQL
Assay: CYP4A enzyme assay (Luciferin-ME luminescence, CYP4A bactosome)
Type: biochemical
Conditions: compound concentration 5 μM; 25%-50%; read-out: % Inhibition 25%-50%
Experimental: A commercially available reagent was used for the reagent used in the experiment, and it was manufactured and used if necessary. The device used for activity measurement was EnVision of PerkinElmer or SpectraMax of MOLECULAR DEVICES.
First, CYP4A bactosome and synthetic compound (5 μM) were mixed in assay buffer (100 mM KPO4, 0.1% BSA, 1 mM DTT) in a 384-well plate (white opaque ploystyrene nontreated flat-bottom well), and then reacted at room temperature for 15 minutes. After adding 5 mM Luciferin-ME and NADPH Regeneration system (10× sol.A, 20× sol.B in assay buffer, Cat. Number: V865B, Promega), leave it at room temperature for 30 minutes to allow the CYP4A reaction to occur sufficiently, by adding the Luciferin Detection reagent, the CYP4A reaction was finished, luminescence reaction was induced, and the reaction was carried out at room temperature for 15 minutes. The degree of inhibition of CYP4A activity was measured by comparing the luminescence values from each well with a microplate reader.

Row | inhibition at 5 µM | Structure (SMILES)
1 | 25 to 50% | Cc1cc(N2CCN(C(=O)C3CCCN(S(=O)(=O)c4c(F)c(F)c(F)c(F)c4F)C3)CC2)c2ccccc2n1 (centres unmarked) [Formula 30, (4-(2-methylquinolin-4-yl)piperazin-1-yl) (1-(perfluorophenylsulfonyl)piperidin-3-yl) methanone]
2 | 25 to 50% | Cc1cc(N2CCN(C(=O)C3CCCN(S(=O)(=O)c4ccccc4F)C3)CC2)c2ccccc2n1 (centres unmarked) [Formula 33, (1-(2-fluorophenylsulfonyl)piperidin-3-yl) (4-(2-methylquinolin-4-yl)piperazin-1-yl) methanone]
3 | 25 to 50% | Cc1cc(N2CCN(C(=O)C3CCCN(S(=O)(=O)c4ccc(Oc5ccccc5)cc4)C3)CC2)c2ccccc2n1 (centres unmarked) [Formula 34, (4-(2-methylquinolin-4-yl)piperazin-1-yl) (1-(4-phenoxyphenylsulfonyl)piperidin-3-yl) methanone]
4 | 25 to 50% | COC(=O)c1ccc(S(=O)(=O)N2CCCC(C(=O)N3CCN(c4cc(C)nc5ccccc45)CC3)C2)cc1 (centres unmarked) [Formula 37, methyl 4-(3-(1-(2-methylquinolin-4-yl)piperazine-4-carbonyl)piperidin-1-ylsulfonyl)benzoate]
5 | 25 to 50% | Cc1cc(N2CCN(C(=O)C3CCCN(S(=O)(=O)c4ccc(Br)cc4)C3)CC2)c2ccccc2n1 (centres unmarked) [Formula 40, (1-((4-bromophenyl)sulfonyl)piperidin-3-yl) (4-(2-methylquinolin-4-yl)piperazin-1-yl)methanone]

Same assay, conditions: compound concentration 5 μM; 75% or more; read-out: % Inhibition 75% or more

Row | inhibition at 5 µM | Structure (SMILES)
6 | ≥ 75% | Cc1cc(N2CCN(C(=O)C3CCCN(S(=O)(=O)c4ccc(N(C)C)cc4)C3)CC2)c2ccccc2n1 (centres unmarked) [Formula 31, (1-(4-(dimethylamino)phenylsulfonyl)piperidin-3-yl) (4-(2-methylquinolin-4-yl)piperazin-1-yl) methanone]
7 | ≥ 75% | Cc1cc(N2CCN(C(=O)C3CCCN(S(=O)(=O)c4ccc(O)cc4)C3)CC2)c2ccccc2n1 (centres unmarked) [Formula 32, (1-(4-hydroxyphenylsulfonyl)piperidin-3-yl) (4-(2-methylquinolin-4-yl)piperazin-1-yl) methanone]
8 | ≥ 75% | Cc1cc(N2CCN(C(=O)C3CCCN(S(=O)(=O)c4ccc(-c5ccccc5)cc4)C3)CC2)c2ccccc2n1 (centres unmarked) [Formula 38, (4-(2-methylquinolin-4-yl)piperazin-1-yl) (1-(4-phenylbenzenesulfonyl)piperidin-3-yl) methanone]
9 | ≥ 75% | O=C(C1CCCN(S(=O)(=O)c2ccc(F)cc2)C1)N1CCN(c2ccnc3cc(F)ccc23)CC1 (centres unmarked) [Formula 42, (1-((4-fluorophenyl)sulfonyl)piperidin-3-yl) (4-(7-fluoroquinolin-4-yl)piperazin-1-yl) methanone]
10 | ≥ 75% | O=C(C1CCCN(S(=O)(=O)c2ccc(O)cc2)C1)N1CCN(c2ccnc3cc(F)ccc23)CC1 (centres unmarked) [Formula 43, (4-(7-fluoroquinolin-4-yl)piperazin-1-yl) (1-((4-hydroxyphenyl)sulfonyl)piperidin-3-yl) methanone]
11 | ≥ 75% | CC(=O)Nc1ccc(S(=O)(=O)N2CCCC(C(=O)N3CCN(c4ccnc5cc(F)ccc45)CC3)C2)cc1 (centres unmarked) [Formula 45, N-(4-(3-(1-(7-fluoroquinolin-4-yl)piperazine-4-carbonyl)piperidin-1-ylsulfonyl)phenyl) acetamide]
12 | ≥ 75% | CC(=O)Nc1ccc(S(=O)(=O)N2CCC[C@@H](C(=O)N3CCN(c4ccnc5cc(F)ccc45)CC3)C2)cc1 [Formula 46, (R)—N-(4-(3-(1-(7-fluoroquinolin-4-yl)piperazine-4-carbonyl)piperidin-1-ylsulfonyl)phenyl) acetamide]
13 | ≥ 75% | CC(=O)Nc1ccc(S(=O)(=O)N2CCC[C@H](C(=O)N3CCN(c4ccnc5cc(F)ccc45)CC3)C2)cc1 [Formula 47, (S)—N-(4-(3-(1-(7-fluoroquinolin-4-yl)piperazine-4-carbonyl)piperidin-1-ylsulfonyl)phenyl) acetamide]
14 | ≥ 75% | O=C(C1CCCN(S(=O)(=O)c2ccc([N+](=O)[O-])cc2)C1)N1CCN(c2ccnc3cc(F)ccc23)CC1 (centres unmarked) [Formula 50, (4-(7-fluoroquinolin-4-yl)piperazin-1-yl) (1-(4-nitrophenylsulfonyl)piperidin-3-yl) methanone]
15 | ≥ 75% | O=C(C1CCCN(S(=O)(=O)c2cccc([N+](=O)[O-])c2)C1)N1CCN(c2ccnc3cc(F)ccc23)CC1 (centres unmarked) [Formula 51, (4-(7-fluoroquinolin-4-yl)piperazin-1-yl) (1-(3-nitrophenylsulfonyl)piperidin-3-yl) methanone]
16 | ≥ 75% | CCN(CC)c1ccc(S(=O)(=O)N2CCCC(C(=O)N3CCN(c4ccnc5cc(F)ccc45)CC3)C2)cc1 (centres unmarked) [Formula 52, (1-(4-(diethylamino)phenylsulfonyl)piperidin-3-yl) (4-(7-fluoroquinolin-4-yl)piperazin-1-yl) methanone]
17 | ≥ 75% | COc1ccc(S(=O)(=O)N2CCCC(C(=O)N3CCN(c4ccnc5cc(F)ccc45)CC3)C2)cc1 (centres unmarked) [Formula 53, (4-(7-fluoroquinolin-4-yl)piperazin-1-yl) (1-(4-methoxyphenylsulfonyl)piperidin-3-yl) methanone]
18 | ≥ 75% | CC(=O)c1ccc(S(=O)(=O)N2CCCC(C(=O)N3CCN(c4ccnc5cc(F)ccc45)CC3)C2)cc1 (centres unmarked) [Formula 54, 1-(4-(3-(1-(7-fluoroquinolin-4-yl)piperazine-4-carbonyl)piperidin-1-ylsulfonyl)phenyl) ethanone]
19 | ≥ 75% | O=C(C1CCCN(S(=O)(=O)c2ccc(-c3ccccc3)cc2)C1)N1CCN(c2ccnc3cc(F)ccc23)CC1 (centres unmarked) [Formula 55, (4-(7-fluoroquinolin-4-yl)piperazin-1-yl) (1-(4-phenylbenzenesulfonyl)piperidin-3-yl) methanone]
20 | ≥ 75% | O=C(C1CCCN(S(=O)(=O)c2ccc(Br)cc2)C1)N1CCN(c2ccnc3cc(F)ccc23)CC1 (centres unmarked) [Formula 56, (1-(4-bromophenylsulfonyl)piperidin-3-yl) (4-(7-fluoroquinolin-4-yl)piperazin-1-yl)methanone]
21 | 0% | O=C([C@@H]1CCCN(S(=O)(=O)c2ccc(Br)cc2)C1)N1CCN(c2ccnc3cc(F)ccc23)CC1 [Formula 57, (R)-(1-(4-bromophenylsulfonyl)piperidin-3-yl) (4-(7-fluoroquinolin-4-yl)piperazin-1-yl) methanone]
22 | ≥ 75% | COc1cccc(S(=O)(=O)N2CCCC(C(=O)N3CCN(c4ccnc5cc(F)ccc45)CC3)C2)c1 (centres unmarked) [Formula 58, (4-(7-fluoroquinolin-4-yl)piperazin-1-yl) (1-(3-methoxyphenylsulfonyl)piperidin-3-yl) methanone]
23 | ≥ 75% | CC(=O)Nc1cccc(S(=O)(=O)N2CCC[C@@H](C(=O)N3CCN(c4ccnc5cc(F)ccc45)CC3)C2)c1 [Formula 59, (R)—N-(3-(3-(1-(7-fluoroquinolin-4-yl)piperazine-4-carbonyl)piperidin-1-ylsulfonyl)phenyl) acetamide]
24 | ≥ 75% | O=C([C@@H]1CCCN(S(=O)(=O)c2cccc([N+](=O)[O-])c2)C1)N1CCN(c2ccnc3cc(F)ccc23)CC1 [Formula 60, (R)-(4-(7-fluoroquinolin-4-yl)piperazin-1-yl) (1-(3-nitrophenylsulfonyl)piperidin-3-yl) methanone]
25 | ≥ 75% | CN(C)c1cccc(S(=O)(=O)N2CCC[C@@H](C(=O)N3CCN(c4ccnc5cc(F)ccc45)CC3)C2)c1 [Formula 61, (R)-(1-(3-(dimethylamino)phenylsulfonyl)piperidin-3-yl) (4-(7-fluoroquinolin-4-yl)piperazin-1-yl) methanone]

Same assay, conditions: compound concentration 5 μM; '50%-75%'; read-out: % Inhibition 50%-75%

Row | inhibition at 5 µM | Structure (SMILES)
26 | 50 to 75% | Cc1cc(N2CCN(C(=O)C3CCCN(S(=O)(=O)c4ccc(C#N)cc4)C3)CC2)c2ccccc2n1 (centres unmarked) [Formula 35, 4-(3-(1-(2-methylquinolin-4-yl)piperazine-4-carbonyl)piperidin-1-ylsulfonyl)benzonitrile]
27 | 50 to 75% | Cc1cc(N2CCN(C(=O)C3CCCN(S(=O)(=O)c4ccc(S(C)(=O)=O)cc4)C3)CC2)c2ccccc2n1 (centres unmarked) [Formula 36, (4-(2-methylquinolin-4-yl)piperazin-1-yl) (1-(4-(methylsulfonyl)phenylsulfonyl)piperidin-3-yl) methanone]
28 | 50 to 75% | COc1cccc(S(=O)(=O)N2CCCC(C(=O)N3CCN(c4cc(C)nc5ccccc45)CC3)C2)c1 (centres unmarked) [Formula 39, (1-(3-methoxyphenylsulfonyl)piperidin-3-yl) (4-(2-methylquinolin-4-yl)piperazin-1-yl) methanone]
29 | 50 to 75% | O=C(C1CCCN(S(=O)(=O)c2ccccc2)C1)N1CCN(c2ccnc3cc(F)ccc23)CC1 (centres unmarked) [Formula 41, (4-(7-fluoroquinolin-4-yl)piperazin-1-yl) (1-(phenylsulfonyl)piperidin-3-yl) methanone]
